Values of other authors, collected in patent publication US10799449B2, “Medicinal delivery system and related methods” (JSRNTI, LLC, priority 2006, dated 2020).

Assays:
[1] = in water

| Solubility [1] [grams/100 grams water] | Molecule | further results |
| --- | --- | --- |
| 75 | OC[C@@H](O)[C@@H](O)[C@H](O)[C@@H](O)CO [Sorbitol] |  |
| 70 | OC[C@@H](O)[C@H](O)[C@@H](O)CO [Xylitol] |  |
|  | CN1CCCC1c1cccnc1 (stereo not drawn) [Nicotine] | Available nicotine in an un-ionized state (buffered saliva pH of 9.0): approximately 91%; pKa (weak base): approximately 8.0; Available nicotine in the un-ionized form (without buffer, normal saliva pH of 6.5): 3% |
| 23 | OC[C@@H](O)[C@@H](O)[C@H](O)[C@H](O)CO [Mannitol] |  |
| 55 | OC[C@@H](O)[C@@H](O[C@@H]1O[C@H](CO)[C@H](O)[C@H](O)[C@H]1O)[C@H](O)[C@@H](O)CO [Lactitol] |  |

| Molecule | Solubility [1] [grams/100 grams water] | further results |
| --- | --- | --- |
| OC[C@@H](O)[C@@H](O[C@H]1O[C@H](CO)[C@@H](O)[C@H](O)[C@H]1O)[C@H](O)[C@@H](O)CO [Maltitol] | 71 |  |
| Isomalt | 38 |  |
